Like-named read-outs stand apart in the source and are kept apart here.
Assays:
Assay type in all cases: in vivo
[1] = tested on: Kochia (Kochia scoparia); assay: Test A preemergence; details: Bassia scoparia, pre-emergence, 240 h; for pest or weed control at 125 g/ha: 125 g ai/ha; for pest or weed control at 500 g/ha: 500 g ai/ha
Method in brief: (§1)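 Visual injury scores from 0, no effect, to 100, complete control, were assigned versus untreated controls roughly 10 d after treatment in the greenhouse. Test chemicals, formulated with surfactant in a non-phytotoxic solvent, were applied to planted seeds as a preemergence soil spray or postemergence to one- to two-leaf plants 2 to 10 cm tall, in loam–sand soil.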

[2] = tested on: barnyardgrass (Echinochloa crus-galli); assay: Test A preemergence; details: Echinochloa crus-galli, pre-emergence, 240 h; for pest or weed control at 125 g/ha: 125 g ai/ha; for pest or weed control at 500 g/ha: 500 g ai/ha
Method in brief: as §1

[3] = tested on: giant foxtail (Setaria faberii); assay: Test A preemergence; details: Setaria faberi, pre-emergence, 240 h; for pest or weed control at 125 g/ha: 125 g ai/ha; for pest or weed control at 500 g/ha: 500 g ai/ha
Method in brief: as §1

[4] = tested on: pigweed (Amaranthus retroflexus); assay: Test A preemergence; details: Amaranthus retroflexus, pre-emergence, 240 h; for pest or weed control at 125 g/ha: 125 g ai/ha; for pest or weed control at 500 g/ha: 500 g ai/ha
[5] = tested on: ragweed (common ragweed, Ambrosia elatior); assay: Test A preemergence; details: Ambrosia artemisiifolia, pre-emergence, 240 h; for pest or weed control at 125 g/ha: 125 g ai/ha; for pest or weed control at 500 g/ha: 500 g ai/ha
Method in brief: as §1

[6] = tested on: ryegrass, Italian (Italian ryegrass, Lolium multiflorum); assay: Test A preemergence; details: Lolium multiflorum, pre-emergence, 240 h; for pest or weed control at 125 g/ha: 125 g ai/ha; for pest or weed control at 500 g/ha: 500 g ai/ha
Method in brief: as §1

[7] = tested on: Kochia (Kochia scoparia); assay: Test A postemergence; details: Bassia scoparia, post-emergence, 240 h, postemergence; for pest or weed control at 125 g/ha: 125 g ai/ha
Method in brief: as §1

[8] = tested on: barnyardgrass (Echinochloa crus-galli); assay: Test A postemergence; details: Echinochloa crus-galli, post-emergence, 240 h; for pest or weed control at 125 g/ha: 125 g ai/ha
Method in brief: as §1

[9] = tested on: giant foxtail (Setaria faberii); assay: Test A postemergence; details: Setaria faberi, post-emergence, 240 h, postemergence; for pest or weed control at 125 g/ha: 125 g ai/ha
Method in brief: as §1

[10] = tested on: wheat (Triticum aestivum); assay: Test A postemergence; details: Triticum aestivum, post-emergence, 240 h, postemergence; for plant injury at 125 g/ha: 125 g ai/ha
Method in brief: as §1

[11] = tested on: barnyardgrass (Echinochloa crus-galli); assay: Test B flooded paddy test; details: Echinochloa crus-galli, Flood, 250 g ai/ha; scale of 0 to 100 where 0 is no effect and 100 is complete control; read-out: Barnyardgrass plant response rating
Method in brief: (§2)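 Percent control, visually estimated after 13–15 d in the greenhouse on a 0–100 basis, compares treated pots with untreated ones; compound was put into paddy water 3 cm above the soil when plants had two leaves.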

[12] = tested on: ducksalad (Heteranthera limosa); assay: Test B flooded paddy test; details: Heteranthera limosa, Flood, 250 g ai/ha; scale of 0 to 100 where 0 is no effect and 100 is complete control; read-out: Ducksalad plant response rating
Method in brief: as §2

[13] = tested on: rice (Oryra sativa); assay: Test B flooded paddy test; details: Oryza sativa, Flood, 250 g ai/ha; scale of 0 to 100 where 0 is no effect and 100 is complete control; read-out: Rice plant response rating
Method in brief: as §2

[14] = tested on: sedge, umbrella (small-flower umbrella sedge, Cyperus difformis); assay: Test B flooded paddy test; details: Cyperus difformis, Flood, 250 g ai/ha; scale of 0 to 100 where 0 is no effect and 100 is complete control; read-out: Sedge, Umbrella plant response rating
Method in brief: as §2

O=C1NC[C@H](c2ccc(F)c(OC(F)(F)C(F)(F)Br)c2)[C@H]1C(=O)Nc1cccc(F)c1F (racemic) [Compound 914]
pest or weed control at 125 g/ha ([1]; preemergence, 0 to 100 scale where 0 is no effect and 100 is complete control, read-out: Kochia plant response rating): 60% | pest or weed control at 500 g/ha ([1]; Preemergence, visual injury vs untreated controls after approximately 10 d, read-out: Kochia plant response rating (0 to 100 scale where 0 is no effect and 100 is complete control)): 60% | pest or weed control at 125 g/ha ([2]; preemergence, 0 to 100 scale where 0 is no effect and 100 is complete control, read-out: Barnyardgrass plant response rating): 70% | pest or weed control at 500 g/ha ([2]; Preemergence, visual injury vs untreated controls after approximately 10 d, read-out: Barnyardgrass plant response rating (0 to 100 scale where 0 is no effect and 100 is complete control)): 90% | pest or weed control at 125 g/ha ([3]; preemergence, 0 to 100 scale where 0 is no effect and 100 is complete control, read-out: Foxtail, Giant plant response rating): 90% | pest or weed control at 500 g/ha ([3]; Preemergence, visual injury vs untreated controls after approximately 10 d, read-out: Foxtail, Giant plant response rating (0 to 100 scale where 0 is no effect and 100 is complete control)): 90% | pest or weed control at 125 g/ha ([4]; preemergence, 0 to 100 scale where 0 is no effect and 100 is complete control, read-out: Pigweed plant response rating): 90% | pest or weed control at 500 g/ha ([4]; Preemergence, visual injury vs untreated controls after approximately 10 d, read-out: Pigweed plant response rating (0 to 100 scale where 0 is no effect and 100 is complete control)): 90% | pest or weed control at 125 g/ha ([5]; preemergence, 0 to 100 scale where 0 is no effect and 100 is complete control, read-out: Ragweed plant response rating): 0% | pest or weed control at 500 g/ha ([5]; Preemergence, visual injury vs untreated controls after approximately 10 d, read-out: Ragweed plant response rating (0 to 100 scale where 0 is no effect and 100 is complete control)): 0% | pest or weed control at 125 g/ha ([6]; preemergence, 0 to 100 scale where 0 is no effect and 100 is complete control, read-out: Ryegrass, Italian plant response rating): 0% | pest or weed control at 500 g/ha ([6]; Preemergence, visual injury vs untreated controls after approximately 10 d, read-out: Ryegrass, Italian plant response rating (0 to 100 scale where 0 is no effect and 100 is complete control)): 60% | pest or weed control at 125 g/ha ([7]; visual injury rating after approximately 10 d, read-out: Kochia plant response rating (0 to 100 scale, 0 no effect, 100 complete control)): 70% | pest or weed control at 125 g/ha ([8]; postemergence, visual injury rating after approximately 10 d, read-out: Barnyardgrass plant response rating (0 to 100 scale, 0 no effect, 100 complete control)): 0% | pest or weed control at 125 g/ha ([9]; visual injury rating after approximately 10 d, read-out: Foxtail, Giant plant response rating (0 to 100 scale, 0 no effect, 100 complete control)): 70% | plant injury at 125 g/ha ([10]; visual injury rating after approximately 10 d, read-out: Wheat plant response rating (0 to 100 scale, 0 no effect, 100 complete control)): 0% | pest or weed control at 250 g/ha [11]: 0% | pest or weed control at 250 g/ha [12]: 50% | pest or weed control at 250 g/ha [13]: 15% | pest or weed control at 250 g/ha [14]: 0%

CSc1ccccc1NC(=O)[C@H]1C(=O)NC[C@@H]1c1ccc(C)c(C)c1 [Compound 1036]
pest or weed control at 125 g/ha ([1]; Preemergence, visual injury rating after approximately 10 d, read-out: Kochia plant response rating (0 to 100 scale, 0 is no effect, 100 is complete control)): 70% | pest or weed control at 500 g/ha ([1]; preemergence, visual injury rating about 10 d after treatment, 0 to 100 scale (0 no effect, 100 complete control), read-out: Kochia plant response rating): 90% | pest or weed control at 125 g/ha ([2]; Preemergence, visual injury rating after approximately 10 d, read-out: Barnyardgrass plant response rating (0 to 100 scale, 0 is no effect, 100 is complete control)): 90% | pest or weed control at 500 g/ha ([2]; preemergence, visual injury rating about 10 d after treatment, 0 to 100 scale (0 no effect, 100 complete control), read-out: Barnyardgrass plant response rating): 90% | pest or weed control at 125 g/ha ([3]; Preemergence, visual injury rating after approximately 10 d, read-out: Foxtail, Giant plant response rating (0 to 100 scale, 0 is no effect, 100 is complete control)): 70% | pest or weed control at 500 g/ha ([3]; preemergence, visual injury rating about 10 d after treatment, 0 to 100 scale (0 no effect, 100 complete control), read-out: Foxtail, Giant plant response rating): 90% | pest or weed control at 125 g/ha ([4]; Preemergence, visual injury rating after approximately 10 d, read-out: Pigweed plant response rating (0 to 100 scale, 0 is no effect, 100 is complete control)): 0% | pest or weed control at 500 g/ha ([4]; preemergence, visual injury rating about 10 d after treatment, 0 to 100 scale (0 no effect, 100 complete control), read-out: Pigweed plant response rating): 0% | pest or weed control at 125 g/ha ([5]; Preemergence, visual injury rating after approximately 10 d, read-out: Ragweed plant response rating (0 to 100 scale, 0 is no effect, 100 is complete control)): 0% | pest or weed control at 500 g/ha ([5]; preemergence, visual injury rating about 10 d after treatment, 0 to 100 scale (0 no effect, 100 complete control), read-out: Ragweed plant response rating): 50% | pest or weed control at 125 g/ha ([6]; Preemergence, visual injury rating after approximately 10 d, read-out: Ryegrass, Italian plant response rating (0 to 100 scale, 0 is no effect, 100 is complete control)): 20% | pest or weed control at 500 g/ha ([6]; preemergence, visual injury rating about 10 d after treatment, 0 to 100 scale (0 no effect, 100 complete control), read-out: Ryegrass, Italian plant response rating): 20% | pest or weed control at 125 g/ha ([7]; visual injury on 0 to 100 scale (0 no effect, 100 complete control), approx. 10 d, read-out: Kochia plant response rating): 0% | pest or weed control at 500 g/ha ([7]; 500 g ai/ha, visual injury, 0 to 100 scale (0 no effect, 100 complete control), approx. 10 d, read-out: Plant response rating, Kochia): 0% | pest or weed control at 125 g/ha ([8]; Postemergence, visual injury after approximately 10 d, 0 to 100 scale where 0 is no effect and 100 is complete control, read-out: Plant response rating, Barnyardgrass): 70% | pest or weed control at 500 g/ha ([8]; 500 g ai/ha, postemergence, visual injury, 0 to 100 scale (0 no effect, 100 complete control), approx. 10 d, read-out: Plant response rating, Barnyardgrass): 90% | pest or weed control at 125 g/ha ([9]; visual injury on 0 to 100 scale (0 no effect, 100 complete control), approx. 10 d, read-out: Foxtail, Giant plant response rating): 0% | pest or weed control at 500 g/ha ([9]; 500 g ai/ha, visual injury, 0 to 100 scale (0 no effect, 100 complete control), approx. 10 d, read-out: Plant response rating, Foxtail, Giant): 60% | plant injury at 125 g/ha ([10]; visual injury on 0 to 100 scale (0 no effect, 100 complete control), approx. 10 d, read-out: Wheat plant response rating): 0% | plant injury at 500 g/ha ([10]; 500 g ai/ha, visual injury, 0 to 100 scale (0 no effect, 100 complete control), approx. 10 d, read-out: Plant response rating, Wheat): 20%

— patent US12077503B2, “Substituted cyclic amides and their use as herbicides” (FMC CORPORATION, priority 2015, dated 2024)
